Test results: ChEMBL document CHEMBL1139706, “Novel thienopyrrole glycogen phosphorylase inhibitors: synthesis, in vitro SAR and crystallographic studies” (Bioorg Med Chem Lett, 2006)

Legend:
[1] = molecular target: T1, Glycogen phosphorylase, liver form (Homo sapiens, UniProt P06737); assay: Inhibition of recombinant human liver GPa by multienzyme coupled assay
T1 sequence (P06737 whole entry): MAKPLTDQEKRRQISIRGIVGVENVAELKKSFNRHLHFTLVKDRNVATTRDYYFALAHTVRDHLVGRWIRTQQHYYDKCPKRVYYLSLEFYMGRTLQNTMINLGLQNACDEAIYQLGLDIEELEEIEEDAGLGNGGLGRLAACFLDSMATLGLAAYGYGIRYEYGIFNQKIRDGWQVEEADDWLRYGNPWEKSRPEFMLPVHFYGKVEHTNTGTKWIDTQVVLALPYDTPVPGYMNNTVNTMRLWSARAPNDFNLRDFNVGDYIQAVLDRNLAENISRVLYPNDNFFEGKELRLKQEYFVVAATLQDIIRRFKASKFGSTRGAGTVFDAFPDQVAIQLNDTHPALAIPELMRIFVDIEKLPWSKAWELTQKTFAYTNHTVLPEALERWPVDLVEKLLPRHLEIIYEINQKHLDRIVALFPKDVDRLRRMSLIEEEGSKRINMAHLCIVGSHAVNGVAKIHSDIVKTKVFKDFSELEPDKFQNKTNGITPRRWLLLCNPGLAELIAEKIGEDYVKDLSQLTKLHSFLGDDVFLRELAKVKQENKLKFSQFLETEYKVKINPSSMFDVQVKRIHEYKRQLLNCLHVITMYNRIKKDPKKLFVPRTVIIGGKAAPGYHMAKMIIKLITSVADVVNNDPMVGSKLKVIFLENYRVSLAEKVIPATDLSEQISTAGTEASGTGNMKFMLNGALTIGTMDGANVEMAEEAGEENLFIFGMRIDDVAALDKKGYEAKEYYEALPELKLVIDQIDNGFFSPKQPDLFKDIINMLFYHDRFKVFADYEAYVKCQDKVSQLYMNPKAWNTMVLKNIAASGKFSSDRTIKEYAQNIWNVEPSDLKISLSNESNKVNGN

Hepatocyte = assay: Inhibition of glucose output in glucagon challenged rat hepatocytes; type: functional, cell-based
[2] = molecular target: T2, Glycogen phosphorylase, liver form (Homo sapiens) (UniProt P06737); assay: Inhibition of recombinant human liver GPa by multienzyme coupled assay at 10 uM
T2 sequence (whole entry): T1 sequence (P06737 whole entry)

[3] = molecular target: T2, Glycogen phosphorylase, liver form (Homo sapiens); assay: Inhibition of recombinant human liver GPa by multienzyme coupled assay at 100 uM

| IC50 [1] [nM] | inhibition [2] [%] | inhibition [3] [%] | SMILES | IC50 (Hepatocyte) [nM] |
| --- | --- | --- | --- | --- |
| 390 |  |  | CNC(=O)[C@H](Cc1ccccc1)NC(=O)c1cc2scc(Cl)c2[nH]1 |  |
| > 10000 |  |  | CN(C)C(=O)[C@H](Cc1ccccc1)N(C)C(=O)c1cc2sc(Br)c(Br)c2[nH]1 |  |
|  | 20 |  | CN(C)C(=O)[C@H](Cc1ccccc1)NC(=O)c1cc2c(Br)c(Br)sc2[nH]1 |  |
| 197 |  |  | O=C(NC1Cc2ccccc2C1)c1cc2sc(Cl)c(Cl)c2[nH]1 |  |
| 49 |  |  | O=C(N[C@@H]1Cc2ccc(F)cc2[C@H]1O)c1cc2sc(Cl)c(Cl)c2[nH]1 | 1300 |
| 23 |  |  | CN(C)C(=O)[C@H](Cc1ccccc1)NC(=O)c1cc2sc(Br)c(Br)c2[nH]1 |  |
| 51 |  |  | CN(C)C(=O)[C@H](Cc1ccccc1)NC(=O)c1cc2cc(Cl)ccc2[nH]1 | 2600 |
| 90 |  |  | O=C(N[C@@H]1Cc2ccc(Cl)cc2[C@H]1O)c1cc2sc(Cl)c(Cl)c2[nH]1 |  |
| 17 |  |  | CN(C)C(=O)[C@H](Cc1ccccc1)NC(=O)c1cc2cc(Cl)sc2[nH]1 | 1400 |

The next lines start with the compound.

| SMILES | IC50 [1] [nM] | inhibition [2] [%] | inhibition [3] [%] | IC50 (Hepatocyte) [nM] |
| --- | --- | --- | --- | --- |
| CN(C)C(=O)[C@H](Cc1ccccc1)NC(=O)c1cc2sc(Cl)c(Cl)c2[nH]1 | 5 |  |  | 1000 |
| O=C(N[C@@H]1Cc2ccccc2[C@H]1O)c1cc2cc(Cl)sc2[nH]1 |  |  |  | 3600 |
| O=C(N[C@@H]1Cc2ccccc2[C@H]1O)c1cc2sc(Cl)c(Cl)c2[nH]1 | 9 |  |  | 1500 |
| CN(C)C(=O)[C@H](Cc1ccccc1)NC(=O)c1cc2sc(Br)c(Br)c2n1C | > 10000 |  |  | 1100 |
| O=C(NC1Cc2ccccc2NC1=O)c1cc2cc(Cl)ccc2[nH]1 (configuration not stated) | 86 |  |  | 7000 |
| CN(C)C(=O)[C@H](Cc1ccccc1)NC(=O)c1cc2sccc2[nH]1 |  |  | 35 |  |
| CN(C)C(=O)[C@H](Cc1ccccc1)NC(=O)c1cc2cc(Br)sc2[nH]1 | 31 |  |  | 1600 |
| CN(C)C(=O)[C@H](Cc1ccccc1)NC(=O)c1cc2ccsc2[nH]1 | 2310 |  |  |  |
| CNC(=O)[C@H](Cc1ccccc1)NC(=O)c1cc2sc(Cl)cc2[nH]1 | 577 |  |  |  |
| O=C(NC1Cc2ccccc2C1)c1cc2cc(Cl)sc2[nH]1 | 806 |  |  |  |
